Results from patent US20240199546A1, “INHIBITORS OF SOLUTE CARRIER FAMILY 6A MEMBER 19 (SLC6A19) AND METHODS OF USE THEREOF” (Maze Therapeutics, Inc., priority 2022, published 2024).

How the values were obtained:
[1] = biological target: T1, human SLC6A19 and TMEM27 (Homo sapiens, UniProt Q695T7); test: Radiolabelled (3H) leucine uptake in CHO cells with doxycycline-inducible expression of human SLC6A19 and TMEM27 (Example B-1); format: cell-based; details: CHO cells with doxycycline-inducible expression of human SLC6A19 and TMEM27, read-out: SLC6A19_Radioligand Uptake Assay IC50
T1 construct: expressed in transfected cells
T1 sequence (Q695T7 1-634): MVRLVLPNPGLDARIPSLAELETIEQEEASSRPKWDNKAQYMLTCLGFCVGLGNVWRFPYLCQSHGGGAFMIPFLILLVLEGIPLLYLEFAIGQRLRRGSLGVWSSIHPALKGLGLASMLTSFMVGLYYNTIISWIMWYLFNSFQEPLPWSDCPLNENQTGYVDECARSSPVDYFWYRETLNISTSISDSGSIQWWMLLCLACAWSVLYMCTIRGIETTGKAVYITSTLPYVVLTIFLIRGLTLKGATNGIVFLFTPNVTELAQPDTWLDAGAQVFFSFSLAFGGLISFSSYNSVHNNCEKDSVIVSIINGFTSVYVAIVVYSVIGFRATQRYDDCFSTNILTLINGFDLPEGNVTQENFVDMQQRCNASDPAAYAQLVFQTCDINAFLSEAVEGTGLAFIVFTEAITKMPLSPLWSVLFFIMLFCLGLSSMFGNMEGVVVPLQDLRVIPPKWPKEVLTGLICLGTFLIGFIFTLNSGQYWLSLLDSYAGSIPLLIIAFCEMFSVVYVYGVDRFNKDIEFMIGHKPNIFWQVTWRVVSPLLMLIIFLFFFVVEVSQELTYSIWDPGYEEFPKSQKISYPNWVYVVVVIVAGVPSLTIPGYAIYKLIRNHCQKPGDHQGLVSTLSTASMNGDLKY
T1 sequence (Q9HBJ8 15-222 partner): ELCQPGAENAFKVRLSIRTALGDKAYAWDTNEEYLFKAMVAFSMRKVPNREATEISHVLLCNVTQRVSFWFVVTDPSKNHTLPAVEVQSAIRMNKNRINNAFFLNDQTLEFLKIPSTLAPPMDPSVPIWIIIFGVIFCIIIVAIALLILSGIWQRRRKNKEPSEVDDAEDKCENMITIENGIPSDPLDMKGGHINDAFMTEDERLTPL
Outline: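 CHO cells were induced with doxycycline for 18 h at 37 °C, washed in HBSS, then exposed to compounds for 1 h: 8-point, 3-fold dilutions in duplicate, 0.5% DMSO final. Uptake measured by scintillation counting after 2 h shaking. Activity normalized with positive control as 0% and DMSO as 100%.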

[2] = biological target: T1, human SLC6A19 and TMEM27; test: 13C6,15N-isoleucine uptake in CHO cells with doxycycline-inducible expression of human SLC6A19 and TMEM27, RapidFire mass spectrometry (Example B-2); format: cell-based; details: read-out: SLC6A19_RapidFire Uptake Assay IC50
Outline: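 Read-out is RapidFire mass-spec peak area of 13C6,15N-isoleucine taken up over 20 min at 37 °C, after 20 min compound pre-exposure in pH 7.2 HEPES-buffered saline. Cells: doxycycline-induced CHO co-expressing human SLC6A19 and TMEM27; compounds as duplicate 10-point 2-fold dilutions, positive control setting 0% activity.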

| Compound | IC50 [1] | IC50 [2] |
| --- | --- | --- |
| Cc1cc(COc2cc3[nH]c(CNC(=O)C(C)C)cc3cc2Cl)no1 [Compound 130, N-((5-chloro-6-((5-methylisoxazol-3-yl)methoxy)-1H-indol-2-yl)methyl)isobutyramide] | 85 nM | 65 nM |
| CC(=O)NCc1cc2cc(C)c(OCc3cscn3)cc2[nH]1 [Compound 234, N-((5-methyl-6-(thiazol-4-ylmethoxy)-1H-indol-2-yl)methyl)acetamide] | 360 nM | 455 nM |
| CC1CCN(C(=O)NCc2cc3ccc(OCc4ccon4)cc3[nH]2)C1 (stereo not shown) [Compound 121, N-((6-(isoxazol-3-ylmethoxy)-1H-indol-2-yl)methyl)-3-methylpyrrolidine-1-carboxamide] | 282 nM | 590 nM |
| Cc1cc(COc2cc3[nH]c(CNC(=O)C4(C(F)(F)F)CC4)cc3cc2Cl)no1 [Compound 125, N-((5-chloro-6-((5-methylisoxazol-3-yl)methoxy)-1H-indol-2-yl)methyl)-1-(trifluoromethyl)cyclopropane-1-carboxamide] | 198 nM | 145 nM |
| CC(=O)NCc1cc2cc(F)c(OCc3ccno3)cc2[nH]1 [Compound 220, N-((5-fluoro-6-(isoxazol-5-ylmethoxy)-1H-indol-2-yl)methyl)acetamide] | 1550 nM | 3480 nM |
| CCc1c(CNC(=O)N2CCC2)[nH]c2cc(OCc3cscn3)c(Cl)cc12 [Compound 424, N-((5-chloro-3-ethyl-6-(thiazol-4-ylmethoxy)-1H-indol-2-yl)methyl)azetidine-1-carboxamide] | 1260 nM | 491 nM |
| O=C(NCc1cc2cc(Cl)c(OCc3cccc(F)n3)cc2[nH]1)N1CCCC1 [Compound 425, N-((5-chloro-6-((6-fluoropyridin-2-yl)methoxy)-1H-indol-2-yl)methyl)pyrrolidine-1-carboxamide] | 315 nM | 115 nM |
| CC1(C(=O)NCc2cc3cc(C(F)F)c(OCc4cscn4)cc3[nH]2)CC1 [Compound 645, N-((5-(difluoromethyl)-6-(thiazol-4-ylmethoxy)-1H-indol-2-yl)methyl)-1-methylcyclopropane-1-carboxamide] | 955 nM | 524 nM |
| O=C(NCc1cc2cc(C(F)(F)F)c(OCc3cscn3)cc2[nH]1)N1CCC1 [Compound 478, N-((6-(thiazol-4-ylmethoxy)-5-(trifluoromethyl)-1H-indol-2-yl)methyl)azetidine-1-carboxamide] | 416 nM | 172 nM |
| Cc1cc2cc(CNC(=O)C3(C)CC3)[nH]c2cc1OCc1cscn1 [Compound 11, 1-methyl-N-((5-methyl-6-(thiazol-4-ylmethoxy)-1H-indol-2-yl)methyl)cyclopropane-1-carboxamide] | 118 nM | 76 nM |
| Cc1cc(COc2cc3[nH]c(CNC(=O)N4CCC4)cc3cc2Cl)on1 [Compound 404, N-((5-chloro-6-((3-methylisoxazol-5-yl)methoxy)-1H-indol-2-yl)methyl)azetidine-1-carboxamide] | 268 nM | 147 nM |
| Cc1cc(COc2cc3[nH]c(CNC(=O)N4CCCC4)cc3cc2Cl)on1 [Compound 83, N-((5-chloro-6-((3-methylisoxazol-5-yl)methoxy)-1H-indol-2-yl)methyl)pyrrolidine-1-carboxamide] | 100 nM | 50 nM |
| CC1(C(=O)NCc2cc3ccc(OCc4c[nH]nn4)cc3[nH]2)CC1 [Compound 194, N-((6-((1H-1,2,3-triazol-4-yl)methoxy)-1H-indol-2-yl)methyl)-1-methylcyclopropane-1-carboxamide] | 6780 nM | 4940 nM |
| CC1(C(=O)NCc2cc3cc(Cl)c(OCc4ncccc4F)cc3[nH]2)CC1 [Compound 26, N-((5-chloro-6-((3-fluoropyridin-2-yl)methoxy)-1H-indol-2-yl)methyl)-1-methylcyclopropane-1-carboxamide] | 149 nM | 166 nM |
| CC1(C(=O)NCc2cc3cc(F)c(OCc4ccon4)cc3[nH]2)CC1 [Compound 6, N-((5-fluoro-6-(isoxazol-3-ylmethoxy)-1H-indol-2-yl)methyl)-1-methylcyclopropane-1-carboxamide] | 175 nM | 148 nM |
| CC1(C(=O)NCc2cc3cc(F)c(OCc4cscn4)cc3[nH]2)CC1 [Compound 8, N-((5-fluoro-6-(thiazol-4-ylmethoxy)-1H-indol-2-yl)methyl)-1-methylcyclopropane-1-carboxamide] | 119 nM | 51 nM |
| CC1(C(=O)NCc2cc3cc(Cl)c(OCc4cc(C(F)F)on4)cc3[nH]2)CC1 [Compound 96, N-((5-chloro-6-((5-(difluoromethyl)isoxazol-3-yl)methoxy)-1H-indol-2-yl)methyl)-1-methylcyclopropane-1-carboxamide] | 261 nM | 354 nM |
| CC(=O)NCc1cc2cc(F)c(OCc3coc(C)n3)cc2[nH]1 [Compound 236, N-((5-fluoro-6-((2-methyloxazol-4-yl)methoxy)-1H-indol-2-yl)methyl)acetamide] | 2990 nM | > 19300 nM |
| CC1(C(=O)NCc2cc3cc(Cl)c(OCc4cncc(F)c4)cc3[nH]2)CC1 [Compound 36, N-((5-chloro-6-((5-fluoropyridin-3-yl)methoxy)-1H-indol-2-yl)methyl)-1-methylcyclopropane-1-carboxamide] | 716 nM | 316 nM |
| O=C(NCc1cc2cc(OC(F)(F)F)c(OCc3cscn3)cc2[nH]1)N1CCCC1 [Compound 415, N-((6-(thiazol-4-ylmethoxy)-5-(trifluoromethoxy)-1H-indol-2-yl)methyl)pyrrolidine-1-carboxamide] | 384 nM | 93.4 nM |
| COC(=O)NCc1cc2cc(Cl)c(OCc3cscn3)cc2[nH]1 [Compound 624, methyl ((5-chloro-6-(thiazol-4-ylmethoxy)-1H-indol-2-yl)methyl)carbamate] | 104 nM | 30.9 nM |
| Cc1coc(COc2cc3[nH]c(CNC(=O)N4CCCC4)cc3cc2Cl)n1 [Compound 426, N-((5-chloro-6-((4-methyloxazol-2-yl)methoxy)-1H-indol-2-yl)methyl)pyrrolidine-1-carboxamide] | 351 nM | 217 nM |
| CC(C)C(=O)NCc1cc2cc(Cl)c(OCc3ccon3)cc2[nH]1 [Compound 132, N-((5-chloro-6-(isoxazol-3-ylmethoxy)-1H-indol-2-yl)methyl)isobutyramide] | 136 nM | 103 nM |
| Cn1ncc(COc2cc3[nH]c(CNC(=O)N4CCC4)cc3cc2Cl)n1 [Compound 405, N-((5-chloro-6-((2-methyl-2H-1,2,3-triazol-4-yl)methoxy)-1H-indol-2-yl)methyl)azetidine-1-carboxamide] | 305 nM | 367 nM |
| O=C(NCc1cc2cc(Cl)c(OCc3ccon3)cc2[nH]1)C1(F)CC1 [Compound 232, N-((5-chloro-6-(isoxazol-3-ylmethoxy)-1H-indol-2-yl)methyl)-1-fluorocyclopropane-1-carboxamide] | 101 nM | 41.2 nM |
| O=C(NCc1cc2cc(Cl)c(OCc3ccon3)cc2[nH]1)C1CC1 [Compound 131, N-((5-chloro-6-(isoxazol-3-ylmethoxy)-1H-indol-2-yl)methyl)cyclopropanecarboxamide] | 74 nM | 50 nM |
| CC(=O)NCc1cc2cc(Cl)c(NCc3ccon3)cc2[nH]1 [Compound 227, N-((5-chloro-6-((isoxazol-3-ylmethyl)amino)-1H-indol-2-yl)methyl)acetamide] | 317 nM | 486 nM |
| O=C(NCc1cc2cc(Cl)c(NCc3cscn3)cc2[nH]1)N1CCC1 [Compound 472, N-((5-chloro-6-((thiazol-4-ylmethyl)amino)-1H-indol-2-yl)methyl)azetidine-1-carboxamide] | 304 nM | 397 nM |
| Cc1csc(COc2cc3[nH]c(CNC(=O)C4(C)CC4)cc3cc2Cl)n1 [Compound 24, N-((5-chloro-6-((4-methylthiazol-2-yl)methoxy)-1H-indol-2-yl)methyl)-1-methylcyclopropane-1-carboxamide] | 412 nM | 222 nM |
